Patent US20250042937A1, “RAPID, GREEN, DISULFIDE BOND FORMATION IN WATER USING DICYANOCOBINAMIDE” (Syracuse University, priority 2023, published 2025)

Tests used:
[1] = test system: rat retinas; conditions: low doses (2-5%); cited from earlier work
[2] = target: T1, oxytocin receptor (Homo sapiens, UniProt P30559); assay: screening at the oxytocin receptor (agonism) after Cbi oxidation; assay type: cell-based; conditions: peptide oxidized with Cbi; free or conjugated to B12
T1 sequence (P30559 1-389): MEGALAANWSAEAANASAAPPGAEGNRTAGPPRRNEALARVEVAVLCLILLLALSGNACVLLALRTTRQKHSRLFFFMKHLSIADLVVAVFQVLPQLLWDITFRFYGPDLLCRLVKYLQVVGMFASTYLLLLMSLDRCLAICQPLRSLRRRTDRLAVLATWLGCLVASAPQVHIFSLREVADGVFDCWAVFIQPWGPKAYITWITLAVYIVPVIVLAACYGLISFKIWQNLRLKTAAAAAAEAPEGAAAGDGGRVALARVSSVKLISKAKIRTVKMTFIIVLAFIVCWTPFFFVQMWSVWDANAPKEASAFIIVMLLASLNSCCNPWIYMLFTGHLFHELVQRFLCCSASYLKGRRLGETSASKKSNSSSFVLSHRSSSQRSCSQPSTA

| Kd [2] | Molecule | cytotoxicity [1] |
| --- | --- | --- |
| – | C[S+](C)[O-] [DMSO, dimethyl sulfoxide] | cytotoxic |
| 4.39 nM | CC[C@H](C)[C@@H]1NC(=O)[C@H](Cc2ccc(O)cc2)NC(=O)[C@@H](N)CSSC[C@@H](C(=O)N2CCC[C@H]2C(=O)N[C@@H](CCCCN=[N+]=[N-])C(=O)NCC(N)=O)NC(=O)[C@H](CC(N)=O)NC(=O)[C@H](CCC(N)=O)NC1=O [OT] | – |
| 4.63 nM | OT after conjugation to B12: OT peptide conjugated to vitamin B12 | – |
